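Compound exposure: 48 hours, 5 concentrations, 96-well plates. TGI denotes the concentration required for complete inhibition of growth.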
Experiments:
Assay in all cases: NCI tumour cell line growth inhibition, 48 h
[1] = tested on: RXF 393 renal
[2] = tested on: SNB-75 CNS
[3] = tested on: OVCAR-5 ovarian
[4] = tested on: RPMI-8226 leukemia
[5] = tested on: UACC-62 melanoma
[6] = tested on: MDA-N
[7] = tested on: HOP-62 NSCLC
[8] = tested on: K-562 leukemia
[9] = tested on: OVCAR-8 ovarian
[10] = tested on: NCI-H226 lung
[11] = tested on: UO-31 renal
[12] = tested on: 786-0 renal
[13] = tested on: BT-549 breast
[14] = tested on: SK-OV-3 ovarian
[15] = tested on: COLO 205 colon
[16] = tested on: ACHN renal
[17] = tested on: DU-145 prostate
[18] = tested on: PC-3 prostate
[19] = tested on: MCF7 breast
[20] = tested on: CCRF-CEM leukemia
[21] = tested on: IGROV1 ovarian
[22] = tested on: HT29 colon
[23] = tested on: HCC-2998 colon
[24] = tested on: SF-539 CNS
[25] = tested on: MALME-3M melanoma
[26] = tested on: SNB-19 CNS
[27] = tested on: KM12 colon
[28] = tested on: TK-10 renal
[29] = tested on: HL-60(TB) leukemia
[30] = tested on: CAKI-1 renal
[31] = tested on: LOX IMVI melanoma
[32] = tested on: SW-620 colon
[33] = tested on: HS 578T breast
[34] = tested on: NCI-H23 lung
[35] = tested on: SN12C renal
[36] = tested on: OVCAR-4 ovarian
[37] = tested on: HCT-116 colon
[38] = tested on: A498 renal
[39] = tested on: MDA-MB-435
[40] = tested on: U251 CNS
[41] = tested on: T-47D breast
[42] = tested on: SK-MEL-2 melanoma
[43] = tested on: SF-268 CNS
[44] = tested on: NCI-H522 lung
[45] = tested on: SR leukemia
[46] = tested on: NCI/ADR-RES ovarian
[47] = tested on: EKVX NSCLC
[48] = tested on: A549 NSCLC
[49] = tested on: HOP-92 NSCLC
[50] = tested on: M14 melanoma
[51] = tested on: SK-MEL-28 melanoma
[52] = tested on: SK-MEL-5 melanoma
[53] = tested on: NCI-H460 lung
[54] = tested on: OVCAR-3 ovarian
[55] = tested on: MDA-MB-231 breast
[56] = tested on: SF-295 CNS
[57] = tested on: UACC-257 melanoma
[58] = tested on: HCT-15 colon
[59] = tested on: MOLT-4 leukemia

**Q.** What does the source list for `C=C1C(=O)OC2CC(C)C3CC(O)OC(OCC)C3(C)CC12` (stereo not given)?
**A.** TGI [1]: 28.3 µM; TGI [2]: 50.8 µM; TGI [3]: 54.4 µM; TGI [4]: 51 µM; TGI [5]: > 52.1 µM; TGI [6]: 35.7 µM; TGI [7]: 47.6 µM; TGI [8]: > 57.4 µM; TGI [9]: 31.4 µM; TGI [10]: 63.1 µM; TGI [11]: 53.7 µM; TGI [12]: 25.1 µM; TGI [13]: > 58.4 µM; TGI [14]: 87.2 µM; TGI [15]: 33.5 µM; TGI [16]: 39.5 µM; TGI [17]: > 100 µM; TGI [18]: 45.9 µM; TGI [19]: 26.7 µM; TGI [20]: > 100 µM; TGI [21]: 48.1 µM; TGI [22]: 38.5 µM; TGI [23]: 30.6 µM; TGI [24]: 35.4 µM; TGI [25]: 23.3 µM; TGI [26]: > 75.5 µM; TGI [27]: 42.6 µM; TGI [28]: 45.2 µM; TGI [29]: > 30 µM; TGI [30]: 42.9 µM; TGI [31]: 17.4 µM; TGI [32]: 19 µM; TGI [33]: 72.8 µM; TGI [34]: 30.9 µM; TGI [35]: 33.2 µM; TGI [36]: 50.3 µM; TGI [37]: 26 µM; TGI [38]: > 69.1 µM; TGI [39]: 37.6 µM; TGI [40]: 33.8 µM; TGI [41]: 33.1 µM; TGI [42]: 29.8 µM; TGI [43]: 34 µM; TGI [44]: 18.8 µM; TGI [45]: > 63.1 µM; TGI [46]: 39.2 µM; TGI [47]: > 62.2 µM; TGI [48]: > 96.6 µM; TGI [49]: 35.1 µM; TGI [50]: 28.5 µM; TGI [51]: 27.5 µM; TGI [52]: 31.7 µM; TGI [53]: 38.6 µM; TGI [54]: 31.3 µM; TGI [55]: 34.8 µM; TGI [56]: 90.6 µM; TGI [57]: 31.5 µM; TGI [58]: 21.3 µM; TGI [59]: 56.4 µM

**Q.** Which TGI [1] does the source give for `CN(C)Cc1cc(C(=O)/C=C/c2ccccc2)cc(CN(C)C)c1O` here?
**A.** Its TGI is 71.8 µM.

**Q.** What about the TGI [2] of the same compound?
**A.** The TGI was > 100 µM.

**Q.** And the TGI [3]?
**A.** The TGI was > 100 µM.

**Q.** What about the TGI [4] of the same compound?
**A.** Its TGI is 54.3 µM.

**Q.** What about the TGI [6] of the same compound?
**A.** Its TGI is 35.7 µM.

**Q.** And the TGI [7]?
**A.** The TGI was > 100 µM.

**Q.** What about the TGI [8] of the same compound?
**A.** Its TGI is 36.8 µM.

**Q.** What about the TGI [9] of the same compound?
**A.** Its TGI is 99.8 µM.

**Q.** What about the TGI [10] of the same compound?
**A.** The TGI was 78.5 µM.

**Q.** And the TGI [11]?
**A.** Its TGI is 40.7 µM.

**Q.** And the TGI [12]?
**A.** The TGI was > 100 µM.

**Q.** What about the TGI [13] of the same compound?
**A.** The TGI was 42.7 µM.

**Q.** And the TGI [15]?
**A.** The TGI was 31.9 µM.

**Q.** And the TGI [16]?
**A.** The TGI was > 100 µM.

**Q.** What about the TGI [17] of the same compound?
**A.** The TGI was > 100 µM.

**Q.** What about the TGI [18] of the same compound?
**A.** Its TGI is 36.9 µM.

**Q.** And the TGI [19]?
**A.** Its TGI is > 100 µM.

**Q.** What about the TGI [20] of the same compound?
**A.** Its TGI is > 100 µM.

**Q.** And the TGI [21]?
**A.** Its TGI is > 100 µM.

**Q.** What about the TGI [22] of the same compound?
**A.** The TGI was 41.4 µM.

**Q.** And the TGI [23]?
**A.** The TGI was 64.8 µM.

**Q.** What about the TGI [24] of the same compound?
**A.** The TGI was 46.5 µM.

**Q.** And the TGI [25]?
**A.** Its TGI is 44.9 µM.

**Q.** And the TGI [26]?
**A.** Its TGI is > 100 µM.

**Q.** What about the TGI [27] of the same compound?
**A.** Its TGI is 33.8 µM.

**Q.** And the TGI [28]?
**A.** Its TGI is > 100 µM.

**Q.** What about the TGI [29] of the same compound?
**A.** Its TGI is 42.3 µM.

**Q.** What about the TGI [30] of the same compound?
**A.** Its TGI is 61.8 µM.

**Q.** What about the TGI [31] of the same compound?
**A.** The TGI was 17.7 µM.

**Q.** What about the TGI [32] of the same compound?
**A.** Its TGI is 45.1 µM.

**Q.** What about the TGI [33] of the same compound?
**A.** The TGI was > 100 µM.

**Q.** What about the TGI [34] of the same compound?
**A.** Its TGI is > 100 µM.

**Q.** What about the TGI [35] of the same compound?
**A.** Its TGI is 30.9 µM.

**Q.** And the TGI [36]?
**A.** The TGI was > 100 µM.

**Q.** What about the TGI [37] of the same compound?
**A.** The TGI was 87.8 µM.

**Q.** And the TGI [38]?
**A.** Its TGI is 78.6 µM.

**Q.** What about the TGI [39] of the same compound?
**A.** The TGI was > 100 µM.

**Q.** What about the TGI [40] of the same compound?
**A.** The TGI was > 100 µM.

**Q.** And the TGI [41]?
**A.** Its TGI is > 100 µM.

**Q.** What about the TGI [43] of the same compound?
**A.** The TGI was > 100 µM.

**Q.** And the TGI [44]?
**A.** Its TGI is 40.8 µM.

**Q.** And the TGI [45]?
**A.** Its TGI is 59.1 µM.

**Q.** What about the TGI [46] of the same compound?
**A.** Its TGI is > 100 µM.

**Q.** And the TGI [47]?
**A.** Its TGI is > 100 µM.

**Q.** What about the TGI [48] of the same compound?
**A.** Its TGI is 68.9 µM.

**Q.** And the TGI [49]?
**A.** Its TGI is 67.4 µM.

**Q.** And the TGI [50]?
**A.** The TGI was 63.1 µM.

**Q.** What about the TGI [51] of the same compound?
**A.** The TGI was > 100 µM.

**Q.** And the TGI [52]?
**A.** Its TGI is 38.4 µM.

**Q.** What about the TGI [53] of the same compound?
**A.** Its TGI is 44.8 µM.

**Q.** And the TGI [54]?
**A.** Its TGI is 99.1 µM.

**Q.** And the TGI [55]?
**A.** Its TGI is 58.1 µM.

**Q.** And the TGI [56]?
**A.** The TGI was 39.6 µM.

**Q.** What about the TGI [57] of the same compound?
**A.** The TGI was 27.9 µM.

**Q.** And the TGI [58]?
**A.** Its TGI is > 100 µM.

**Q.** And the TGI [59]?
**A.** The TGI was 63.7 µM.

From PubChem BioAssay (NCI)
